The source of these data is patent publication US11084822B2, “Salts and processes of preparing a PI3K inhibitor” (Incyte Corporation, priority 2015, dated 2021).

Format in all cases: biochemical
The target of experiment [1] is JAK2 (Homo sapiens (Human), UniProt O60674). As to the kind of experiment: JAK2 versus JAK1 (Assay A at 1 mM ATP). The note with it: ratio JAK2/JAK1, Assay A at 1 mM ATP.
The target in experiment [2] is JAK1 (Homo sapiens (Human), UniProt P23458). As to the kind of experiment: JAK1 IC50 by the method of Assay A at 1 mM ATP.
Experiment [3] deals with PI3K. As to the kind of experiment: PI3K inhibition according to at least one assay described herein.
The target of experiment [4] is PI3Kδ (Homo sapiens (Human), UniProt O00329). As to the kind of experiment: Example A2: PI3K Enzyme Assay ([γ-33P]ATP filter plate). The note with it: assay of Example A2. As to the method:
PI3K isoforms α, β, δ and γ are purchased from Millipore (Bedford, Mass.).
The kinase reactions are conducted in clear-bottom 96-well plate from Thermo Fisher Scientific in a final volume of 24 μL. Inhibitors are first diluted serially in DMSO and added to the plate wells before the addition of other reaction components. The final concentration of DMSO in the assay is 0.5%. […] The reaction mixture is prepared containing 50 μM PIP2, kinase and varying concentration of inhibitors. […] Reactions are incubated for 180 minutes and terminated by the addition of 100 μL of 1 M potassium phosphate pH 8.0, 30 mM EDTA quench buffer. A 100 μL aliquot of the reaction solution are then transferred to 96-well Millipore MultiScreen IP 0.45 μm PVDF filter plate (The filter plate is prewetted with 200 μL 100% ethanol, distilled water, and 1 M potassium phosphate pH 8.0, respectively). […] After drying by aspiration and blotting, the plate is air dried in an incubator at 37° C. overnight. Packard TopCount adapter (Millipore) is then attached to the plate followed with addition of 120 μL Microscint 20 scintillation cocktail (Perkin Elmer) in each well. After the plate sealing, the radioactivity of the product is determined by scintillation counting on Topcount (Perkin-Elmer). […]

Sequence of JAK1 (P23458 whole entry, species assumed): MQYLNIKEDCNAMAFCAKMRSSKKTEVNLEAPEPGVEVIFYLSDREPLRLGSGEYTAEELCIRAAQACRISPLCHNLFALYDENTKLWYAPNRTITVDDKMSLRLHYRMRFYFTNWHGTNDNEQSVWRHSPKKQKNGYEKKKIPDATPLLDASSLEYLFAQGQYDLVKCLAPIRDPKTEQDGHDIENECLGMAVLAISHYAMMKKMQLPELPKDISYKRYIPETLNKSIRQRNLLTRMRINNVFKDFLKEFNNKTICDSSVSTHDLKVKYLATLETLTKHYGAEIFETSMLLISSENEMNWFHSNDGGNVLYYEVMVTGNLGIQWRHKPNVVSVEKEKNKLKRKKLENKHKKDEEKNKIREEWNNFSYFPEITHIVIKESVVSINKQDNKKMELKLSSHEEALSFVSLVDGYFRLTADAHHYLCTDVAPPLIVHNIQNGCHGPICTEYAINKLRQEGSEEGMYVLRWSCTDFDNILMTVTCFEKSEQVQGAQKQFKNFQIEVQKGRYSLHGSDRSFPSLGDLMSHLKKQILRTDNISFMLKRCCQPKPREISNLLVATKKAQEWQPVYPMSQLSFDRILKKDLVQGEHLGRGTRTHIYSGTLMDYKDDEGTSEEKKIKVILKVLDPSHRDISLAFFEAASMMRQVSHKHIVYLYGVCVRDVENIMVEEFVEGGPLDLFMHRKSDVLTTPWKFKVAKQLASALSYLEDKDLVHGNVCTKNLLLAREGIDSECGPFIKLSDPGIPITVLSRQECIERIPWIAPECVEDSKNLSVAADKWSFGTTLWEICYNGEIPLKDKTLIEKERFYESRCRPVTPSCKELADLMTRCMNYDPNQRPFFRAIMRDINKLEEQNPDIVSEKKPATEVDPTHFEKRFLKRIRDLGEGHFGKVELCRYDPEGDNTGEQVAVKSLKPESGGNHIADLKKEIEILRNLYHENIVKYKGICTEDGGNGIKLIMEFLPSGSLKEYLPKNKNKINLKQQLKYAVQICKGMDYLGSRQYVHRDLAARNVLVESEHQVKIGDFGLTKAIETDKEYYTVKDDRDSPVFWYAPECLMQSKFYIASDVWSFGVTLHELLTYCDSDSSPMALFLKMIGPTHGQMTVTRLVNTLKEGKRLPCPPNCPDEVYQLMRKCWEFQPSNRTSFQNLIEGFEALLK
Sequence of PI3Kδ (O00329 whole entry, species assumed, canonical isoform): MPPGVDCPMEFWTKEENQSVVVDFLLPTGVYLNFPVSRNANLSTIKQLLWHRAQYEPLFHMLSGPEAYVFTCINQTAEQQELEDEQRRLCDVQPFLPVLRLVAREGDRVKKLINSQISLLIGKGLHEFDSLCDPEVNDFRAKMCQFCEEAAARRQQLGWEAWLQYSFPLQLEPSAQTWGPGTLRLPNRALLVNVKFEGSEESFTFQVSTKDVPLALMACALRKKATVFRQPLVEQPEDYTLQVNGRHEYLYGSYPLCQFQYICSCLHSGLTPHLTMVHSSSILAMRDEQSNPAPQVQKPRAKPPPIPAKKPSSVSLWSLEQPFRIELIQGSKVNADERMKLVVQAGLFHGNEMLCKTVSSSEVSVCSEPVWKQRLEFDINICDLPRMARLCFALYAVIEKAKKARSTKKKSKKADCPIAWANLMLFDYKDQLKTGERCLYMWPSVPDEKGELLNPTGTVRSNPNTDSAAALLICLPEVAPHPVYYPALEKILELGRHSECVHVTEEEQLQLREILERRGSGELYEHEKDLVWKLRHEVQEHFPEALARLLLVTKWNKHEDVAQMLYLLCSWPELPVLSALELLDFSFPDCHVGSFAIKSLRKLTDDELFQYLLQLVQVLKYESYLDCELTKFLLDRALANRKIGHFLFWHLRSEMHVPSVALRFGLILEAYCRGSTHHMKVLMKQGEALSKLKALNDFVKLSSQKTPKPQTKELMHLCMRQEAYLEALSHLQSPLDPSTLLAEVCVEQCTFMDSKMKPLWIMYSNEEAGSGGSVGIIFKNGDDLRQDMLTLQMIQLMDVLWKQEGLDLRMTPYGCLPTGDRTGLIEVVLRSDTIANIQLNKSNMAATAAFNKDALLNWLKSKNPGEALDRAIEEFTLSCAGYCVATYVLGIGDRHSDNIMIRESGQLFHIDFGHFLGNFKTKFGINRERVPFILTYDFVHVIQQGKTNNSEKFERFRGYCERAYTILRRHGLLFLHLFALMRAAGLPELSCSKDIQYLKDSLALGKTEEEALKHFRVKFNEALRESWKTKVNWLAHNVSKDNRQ
Sequence of PI3Kδ (P27986 whole entry partner, species assumed, canonical isoform): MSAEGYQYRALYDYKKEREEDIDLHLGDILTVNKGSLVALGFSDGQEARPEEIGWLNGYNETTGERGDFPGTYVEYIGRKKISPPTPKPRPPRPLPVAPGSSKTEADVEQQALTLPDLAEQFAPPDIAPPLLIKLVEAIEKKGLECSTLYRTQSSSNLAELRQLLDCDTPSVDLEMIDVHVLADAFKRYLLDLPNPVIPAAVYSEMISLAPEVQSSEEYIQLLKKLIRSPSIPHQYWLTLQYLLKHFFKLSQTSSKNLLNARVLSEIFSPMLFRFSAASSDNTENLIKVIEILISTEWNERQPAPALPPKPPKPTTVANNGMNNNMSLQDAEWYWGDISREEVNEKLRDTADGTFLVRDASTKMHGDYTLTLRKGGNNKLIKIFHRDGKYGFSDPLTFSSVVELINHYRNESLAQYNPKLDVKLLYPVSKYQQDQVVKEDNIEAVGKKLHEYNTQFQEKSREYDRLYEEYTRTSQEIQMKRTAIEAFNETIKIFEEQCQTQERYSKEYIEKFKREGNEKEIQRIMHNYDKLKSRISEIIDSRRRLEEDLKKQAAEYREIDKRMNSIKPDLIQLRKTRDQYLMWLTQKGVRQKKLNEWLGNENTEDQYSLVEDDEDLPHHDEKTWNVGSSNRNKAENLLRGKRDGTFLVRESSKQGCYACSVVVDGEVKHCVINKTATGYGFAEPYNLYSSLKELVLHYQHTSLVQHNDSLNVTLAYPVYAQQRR
Sequence of JAK2 (O60674 whole entry, species assumed): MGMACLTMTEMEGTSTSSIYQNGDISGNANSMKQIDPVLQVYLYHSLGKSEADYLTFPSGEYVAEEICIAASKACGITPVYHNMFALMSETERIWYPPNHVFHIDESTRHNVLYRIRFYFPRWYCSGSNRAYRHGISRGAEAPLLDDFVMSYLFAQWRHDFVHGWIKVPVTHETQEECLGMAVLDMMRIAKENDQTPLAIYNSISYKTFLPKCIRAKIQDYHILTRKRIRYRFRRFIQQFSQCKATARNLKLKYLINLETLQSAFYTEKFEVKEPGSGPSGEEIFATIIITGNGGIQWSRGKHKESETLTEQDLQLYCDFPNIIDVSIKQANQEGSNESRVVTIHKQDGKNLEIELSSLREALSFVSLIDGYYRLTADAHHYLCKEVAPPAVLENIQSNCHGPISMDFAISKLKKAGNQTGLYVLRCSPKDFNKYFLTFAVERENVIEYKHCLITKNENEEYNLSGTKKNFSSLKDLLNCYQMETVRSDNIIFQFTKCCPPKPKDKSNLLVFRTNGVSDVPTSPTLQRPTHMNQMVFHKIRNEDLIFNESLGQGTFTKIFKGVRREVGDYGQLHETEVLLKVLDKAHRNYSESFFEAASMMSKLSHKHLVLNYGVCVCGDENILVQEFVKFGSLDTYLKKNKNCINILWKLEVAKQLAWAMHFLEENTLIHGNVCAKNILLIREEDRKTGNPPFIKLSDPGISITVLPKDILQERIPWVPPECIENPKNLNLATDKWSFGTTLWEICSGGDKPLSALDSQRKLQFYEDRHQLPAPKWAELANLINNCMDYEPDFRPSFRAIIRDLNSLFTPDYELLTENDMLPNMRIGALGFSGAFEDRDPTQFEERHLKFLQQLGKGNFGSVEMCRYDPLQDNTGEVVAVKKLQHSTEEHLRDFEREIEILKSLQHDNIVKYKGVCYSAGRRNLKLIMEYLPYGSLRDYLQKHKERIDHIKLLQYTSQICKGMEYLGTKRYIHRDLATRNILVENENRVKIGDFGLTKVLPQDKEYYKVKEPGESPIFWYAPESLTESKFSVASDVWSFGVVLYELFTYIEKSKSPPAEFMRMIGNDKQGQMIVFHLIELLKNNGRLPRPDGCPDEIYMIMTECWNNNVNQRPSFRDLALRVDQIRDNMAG

Turning to `C[C@@H](O)c1nc2cnc3ccsc3c2n1[C@H]1CC[C@H](CC#N)OC1` [Compound 1, ((2R,5S)-5-{2-[(1R)-1-hydroxyethyl]-1H-imidazo[4,5-d]thieno[3,2-b]pyridin-1-yl}tetrahydro-2H-pyran-2-yl)acetonitrile], the JAK2/JAK1 in experiment [1] is above 10. Further, the IC50 – broadly, the concentration that gives 50% inhibition – in experiment [2] is below 0.1 µM.
For `CCOc1c([C@H](C)n2nc(C)c3c(N)ncnc32)cc(Cl)c(F)c1[C@@H]1CNC(=O)C1.Cl` [(R)-4-(3-((S)-1-(4-amino-3-methyl-1H-pyrazolo[3,4-d]pyrimidin-1-yl)ethyl)-5-chloro-2-ethoxy-6-fluorophenyl)pyrrolidin-2-one hydrochloride], in experiment [3], the PI3K inhibition result is listed as “found to be PI3K inhibitors”. The “selectivity for PI3Kδ” value in experiment [4] was “selective inhibitor for PI3Kδ”.
